Measurements reported in patent US12459931B2, “Benzothiophene derivative regulator, preparation method therefor and use thereof” (Shanghai Hansoh Biomedical Co., Ltd., priority 2019, dated 2025).

Columns and labels:
[1] = Stability assay in liver microsome in vitro; assay type: in vitro ADME, Mouse
Procedure: IV. Stability Assay in Liver Microsome In Vitro
To evaluate the metabolic stability of the compounds of the present invention in liver microsome in vitro.
Formulation of the working solution of the compound: 2 μL of the stock solution of the compound was added to 998 μL of phosphate buffer, and the final concentration was 20 μM.
Formulation of the working solution of the control compound (7-hydroxycoumarin): The formulation was consistent with that of the compound. • 3.2. Formulation of the working solution of liver microsome
78.1 μL of 20 mg/mL microsome was diluted to 2.5 mL with 100 mM phosphate buffer and mixed well, and the final concentration was 0.625 mg/mL. • 3.3. Formulation of NADPH and UDPGA
33.3 mg of NADPH and 25.8 mg of UDPGA were weighed respectively, followed by the addition of 2 mL of 100 mM phosphate buffer. The final concentrations were 20 mM. • 3.4. Formulation of the channel-forming reagent (Alamethicin)
1 mg of Alamethicin was weighed, to which 200 μL of DMSO was added to obtain a 5 mg/mL solution. 10 μL of this solution was added to 990 μL of phosphate buffer (pH 7.4), and the final concentration was 50 μg/mL. • 3.5. Formulation of the reaction stop solution
Stop solution: Cold acetonitrile containing 100 ng/mL labetalol hydrochloride and 400 ng/mL tolbutamide was used as internal standards, and stored in a refrigerator at 2 to 8° C. • 3.6. Incubation procedure
400 μL of the formulated liver microsome, 25 μL of the working solution of the compound […] and 25 μL of Alamethicin (50 μg/mL) were added to a 96-well plate successively, which was then pre-incubated at 37° C. for 10 min. 50 μL of the formulated NADPH/UDPGA was added to initiate the reaction, and the plate was incubated at 37° C. The total volume of the reaction system was 500 μL. The final contents of the components were as follows:
[…] The resulting sample was centrifuged at 4000 g for 10 min, and the supernatant was collected for LC-MS/MS analysis.

Rats F344 = test: Pharmacodynamic model of active escape experiment in rats; assay type: in vivo; details: oral, dose 1 mg/kg, one hour before the test
Procedure: V. Pharmacodynamic Model of Active Escape Experiment in Rats
To evaluate the anti-schizophrenic effect of the compounds using the pharmacodynamic model of the active escape experiment in rats.
4. Formulation of the Vehicle and Compounds: • 4.1 Vehicle (0.5% CMC-Na+1% Tween80)
A certain mass (such as 1.0 g) of CMC-Na was weighed into a glass bottle, a certain volume (such as 200 mL) of purified water was added, and the resulting mixture was stirred to disperse evenly. 1% (v/v) Tween 80 was added according to the solution volume, and the resulting mixture was stirred overnight to obtain a homogeneous clear solution, which was stored at 2 to 8° C. for later use. • 4.2 Formulation of the compounds: […]
A formula amount of the compound was weighed, followed by the addition of a formula volume of 0.5% CMC-Na+1% Tween 80 solution. The compound solution was formulated before the administration, stored at 2 to 8° C., and used within 4 days.
The day before the compound screening test, a baseline test was performed. The test procedure was the same as 5.1.1 to 5.1.3, and the number of the baseline test was 20. The animals whose number of avoids reached 16 (80%) were grouped according to the number of avoids, 10 animals per group. The first group was administered with the vehicle orally, and the other groups were administered with the corresponding test compounds according to the experimental design. • 5.3 Compound screening test
The compound was administered orally (5 mL/kg) one hour before the test;
The test procedure was the same as 5.1.1 to 5.1.4, and the number of the test was 20.
The following data was collected by the software for data analysis: • Number of avoids of the animal; • Number of escape failures of the animal; • Escape latency of the animal;
All measurement data were expressed as mean±standard error (Mean±SEM), and analyzed by Graphpad 6 statistical software. The difference was considered to be significant when p<0.05.

5-HT2A receptor = 5-HT2A receptor (Homo sapiens (Human), UniProt P28223); test: Effect on calcium ion mobility in cells stably expressing 5-HT2A receptors (Flp-In-CHO-5HT2A, FLIPR); assay type: cell-based; details: Flp-In-CHO-5HT2A cells, 5HT as agonist
5-HT2A receptor, sequence (P28223 whole entry): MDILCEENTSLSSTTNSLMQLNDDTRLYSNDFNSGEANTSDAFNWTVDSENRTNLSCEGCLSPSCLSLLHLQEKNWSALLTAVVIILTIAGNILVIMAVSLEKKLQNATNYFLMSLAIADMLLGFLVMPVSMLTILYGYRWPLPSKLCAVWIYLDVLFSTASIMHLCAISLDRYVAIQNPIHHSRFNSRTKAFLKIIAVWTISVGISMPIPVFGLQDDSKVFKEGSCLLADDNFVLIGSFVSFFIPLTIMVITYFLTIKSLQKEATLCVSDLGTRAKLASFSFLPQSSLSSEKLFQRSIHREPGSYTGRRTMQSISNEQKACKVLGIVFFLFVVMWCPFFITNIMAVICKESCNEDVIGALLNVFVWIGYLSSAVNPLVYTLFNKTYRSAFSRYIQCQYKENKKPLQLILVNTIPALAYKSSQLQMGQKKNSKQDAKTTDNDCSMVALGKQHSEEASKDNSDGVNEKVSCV
Procedure: To determine the inhibitory effect of the compounds on 5-HT2A receptor.
Probenecid and BSA were added fresh on the day of the experiment.
The calcium signal values were determined by FLIPR. […] The percent inhibition rate and ten-point concentration data were fitted to the parametric nonlinear logistic equation by using GraphPad prism to calculate the IC50 values of the compound.

[2] = Toxicity test by repeated intragastric administration for 14 days in SD rats (with toxicokinetics); assay type: in vivo, Sprague-Dawley (SD) rats; details: both sexes, Sprague-Dawley, rat, in vivo, po; SD rats, intragastric once a day for two weeks; read-out: Maximum tolerated dose (MTD)
Excerpt: (§1) VI. Toxicity Test by Repeated Intragastric Administration for 14 Days in SD Rats
(§2) The objective of this study was to investigate the possible toxicity of compounds after repeated intragastric administration to SD rats for 14 days. • 6.2 Experimental materials and instruments: • 6.2.1 Test compound
(§3) Test compound 1: the compound of Example 42. • 6.2.2 Vehicle:
(§4) Name: 0.5% CMC-Na (1% tween80) aqueous solution • 6.2.3 Animal information:
(§5) Species & strain: Sprague-Dawley (SD) rats
(§6) […] were divided into […] according to their sex and body weight. 40 rats were used for toxicology study (groups 1 to 4, 5 rats/sex/group), and 24 rats were used for toxicokinetics study (groups 5 to 8, 3 rats/sex/group). The animals in groups 1 and 5 were intragastrically administered with 0.5% CMC-Na (1% tween80) aqueous solution as the vehicle control groups. The animals in groups 2 and 6, 3 and 7, 4 and 8 were intragastrically administered with the compound of Example 42 at a dose of 2, 10 and 30 mg/kg, respectively. The animals were administered once a day for 14 consecutive days. The administration volumes were 10 mL/kg. During the experiment, clinical observation, body weight, food intake, body temperature, clinicopathological indicators (blood cell count, coagulation function, blood biochemistry) and toxicokinetics were monitored. All animals were euthanized on D15. During the experiment, the animals in groups 1 to 4 were subjected to gross anatomical observation. Histopathological examination was carried out on abnormal tissue and brain, kidney, adrenal gland, lung and bronchi, prostate, testis and epididymis. • 6.4 List of test data • 6.4.1 Dying/death

SD rats = test: as above; assay type: in vivo, Sprague-Dawley (SD) rats
Excerpt: as §1, §2, §3, §4, §5, §6

[3] = SD rats, 2, 10 or 30 mg/kg, two weeks

| half-life at 1 μM ([1]; CD-1, liver microsomes, pH 7.4, Mouse liver microsome 0.5 mg/mL, compound 1 μM, NADPH/UDPGA, read-out: Half life (t1/2)) | microsomal CLint at 1 μM ([1]; CD-1, liver microsomes, pH 7.4, Mouse liver microsome, note: Slow <8.8, Rapid >48.0, read-out: Intrinsic clearance rate (CLint)) | Remaining (%, 120 min) ([1]; Mouse liver microsome, 120 min) | SMILES | CAR value (Rats F344) | EF (Rats F344) | IC50 (5-HT2A receptor) | MTD at 14 days [2] | Main target organs for toxicity (SD rats; [3]) | Main toxic responses: blood counts (SD rats; [3]) | Main toxic responses: body weight, food intake and body temperature (SD rats; [3]) | Main toxic responses: coagulation function (SD rats; [3]) | Accumulation (SD rats; SD rats, 14 days intragastric, 2, 10 or 30 mg/kg) | Average exposure versus dose (SD rats; SD rats, female and male, D1 and D14) |
| --- | --- | --- | --- | --- | --- | --- | --- | --- | --- | --- | --- | --- | --- |
| 2.72 h | 21.3 µL/min/mg | 80.6% | CC(C)(O)C(=O)N[C@H]1CC[C@H](CCN2CCN(c3cccc4sccc34)CC2)CC1 [Example 41, N-(Trans-4-(2-(4-(benzo[b]thiophen-4-yl)piperazin-1-yl)ethyl)cyclohexyl)-2-hydroxy-2-methylpropanamide] |  |  |  |  |  |  |  |  |  |  |
|  |  |  | O=C(N[C@H]1CC[C@H](CCN2CCN(c3cccc4sccc34)CC2)CC1)C1(O)CC1 [Example 42, N-(Trans-4-(2-(4-(benzo[b]thiophen-4-yl)piperazin-1-yl)ethyl)cyclohexyl)-1-hydroxycyclopropane-1-carboxamide] | 46.5% | 0% | 3.42 nM | 30 mg/kg | the lungs and adrenal glands | WBC, Lymph, Retic and PLT are decreased | body weight, food intake and body temperature are decreased | FIB wis decreased, and APTT is shortened | no accumulation | increased with the increase of the dose |
